Source: ChEMBL document CHEMBL2380191, “Novel racemic tetrahydrocurcuminoid dihydropyrimidinone analogues as potent acetylcholinesterase inhibitors” (Bioorg Med Chem Lett, 2013)

Target: Acetylcholinesterase (Electrophorus electricus, UniProt O42275)
Assay: Inhibition of electric eel AChE using acetylthiocholine iodide as substrate after 15 mins by Ellman's method

Sequence of Acetylcholinesterase (O42275 whole entry): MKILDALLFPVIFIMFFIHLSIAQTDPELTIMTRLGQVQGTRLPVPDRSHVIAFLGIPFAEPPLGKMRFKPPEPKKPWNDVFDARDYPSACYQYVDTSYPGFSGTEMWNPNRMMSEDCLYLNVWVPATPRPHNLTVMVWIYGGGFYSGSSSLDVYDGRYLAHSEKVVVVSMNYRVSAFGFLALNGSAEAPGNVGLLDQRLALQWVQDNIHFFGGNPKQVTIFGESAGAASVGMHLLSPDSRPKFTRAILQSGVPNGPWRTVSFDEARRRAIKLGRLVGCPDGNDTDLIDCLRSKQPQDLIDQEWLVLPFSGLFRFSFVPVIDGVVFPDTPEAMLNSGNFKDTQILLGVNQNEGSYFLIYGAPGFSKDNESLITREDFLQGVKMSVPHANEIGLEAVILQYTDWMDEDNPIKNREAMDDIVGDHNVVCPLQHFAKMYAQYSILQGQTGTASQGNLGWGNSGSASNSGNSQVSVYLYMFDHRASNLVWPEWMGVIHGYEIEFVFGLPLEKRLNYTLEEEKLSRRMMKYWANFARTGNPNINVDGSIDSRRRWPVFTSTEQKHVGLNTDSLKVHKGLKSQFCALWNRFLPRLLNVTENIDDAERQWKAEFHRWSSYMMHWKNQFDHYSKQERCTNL

COc1cc(CCC(=O)C2=C(CCc3ccc(O)c(OC)c3)NC(=O)NC2c2ccccc2)ccc1O (racemic)
IC50: 36.3 µM

COc1cc(CCC(=O)C2=C(CCc3ccc(O)c(OC)c3)NC(=O)NC2c2ccc(O)cc2)ccc1O (racemic)
IC50: 17.3 µM

COc1ccc(C2NC(=O)NC(CCc3ccc(O)c(OC)c3)=C2C(=O)CCc2ccc(O)c(OC)c2)cc1 (racemic)
IC50: 14.3 µM

COc1cc(CCC(=O)C2=C(CCc3ccc(O)c(OC)c3)NC(=O)NC2c2ccc(O)c(OC)c2)ccc1O (racemic)
IC50: 56.4 µM

COc1cc(CCC(=O)C2=C(CCc3ccc(O)cc3)NC(=O)NC2c2ccccc2)ccc1O (racemic)
IC50: 10.7 µM

COc1cc(CCC2=C(C(=O)CCc3ccc(O)cc3)C(c3ccccc3)NC(=O)N2)ccc1O (racemic)
IC50: 20.9 µM

COc1ccc(C2NC(=O)NC(CCc3ccc(O)cc3)=C2C(=O)CCc2ccc(O)c(OC)c2)cc1 (racemic)
IC50: 5.78 µM

COc1ccc(C2NC(=O)NC(CCc3ccc(O)c(OC)c3)=C2C(=O)CCc2ccc(O)cc2)cc1 (racemic)
IC50: 9.1 µM

O=C1NC(CCc2ccc(O)cc2)=C(C(=O)CCc2ccc(O)cc2)C(c2ccccc2)N1 (racemic)
IC50: 2.04 µM

COc1ccc(C2NC(=O)NC(CCc3ccc(O)cc3)=C2C(=O)CCc2ccc(O)cc2)cc1 (racemic)
IC50: 1.34 µM

O=C(/C=C/c1ccc(O)cc1)CC(=O)/C=C/c1ccc(O)cc1 [BISDEMETHOXYCURCUMIN]
IC50: 18.3 µM

COc1cc(/C=C/C(O)=C/C(=O)/C=C/c2ccc(O)cc2)ccc1O [DEMETHOXYCURCUMIN]
IC50: 37.7 µM

O=C(CCc1ccc(O)cc1)CC(=O)CCc1ccc(O)cc1 [LETESTUIANIN C]
IC50: 7.89 µM

COc1cc(CCC(=O)CC(=O)CCc2ccc(O)c(OC)c2)ccc1O [TETRAHYDROCURCUMIN]
IC50: 41.2 µM

COc1cc(CCC(=O)CC(=O)CCc2ccc(O)cc2)ccc1O [TETRAHYDRODEMETHOXYCURCUMIN]
IC50: 20.6 µM
